Here are results for four compounds from paper PMC8343220, “The selectivity of α‐adrenoceptor agonists for the human α1A, α1B, and α1D‐adrenoceptors” (Pharmacology Research & Perspectives, 2021).

Read-outs that look alike come from different tables or passages of the source.

Assay [1] has as its target T1, human α1D‐adrenoceptor (full length) (Homo sapiens, UniProt P25100).
T1 construct: human α1D‐adrenoceptor (full length) were used; expressed in transfected cells; host or cells: CHO-K1
T1 sequence (P25100 1-572): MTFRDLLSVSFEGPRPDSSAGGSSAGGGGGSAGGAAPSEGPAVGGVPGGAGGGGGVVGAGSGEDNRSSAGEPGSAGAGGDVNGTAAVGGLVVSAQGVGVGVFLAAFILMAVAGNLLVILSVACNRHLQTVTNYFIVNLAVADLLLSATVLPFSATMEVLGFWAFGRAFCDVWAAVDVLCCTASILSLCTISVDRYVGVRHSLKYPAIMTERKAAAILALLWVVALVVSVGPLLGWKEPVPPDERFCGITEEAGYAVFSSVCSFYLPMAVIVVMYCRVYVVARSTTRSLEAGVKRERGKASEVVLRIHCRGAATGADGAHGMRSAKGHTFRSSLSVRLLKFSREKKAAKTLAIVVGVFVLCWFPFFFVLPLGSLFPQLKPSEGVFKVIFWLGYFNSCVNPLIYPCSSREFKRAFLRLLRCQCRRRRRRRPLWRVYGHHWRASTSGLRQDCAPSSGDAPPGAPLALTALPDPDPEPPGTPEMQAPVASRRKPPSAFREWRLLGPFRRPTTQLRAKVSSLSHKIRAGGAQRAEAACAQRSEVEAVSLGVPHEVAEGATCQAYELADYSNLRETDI
Nature of the assay: ERK1/2‐phosphorylation (Surefire Alphascreen), CHO‐α1D cells. The assay is classed as cell-based. (In general: Alpha assays give light when donor and acceptor beads are brought close together.)

The target of assay [2] is T2, human α1B‐adrenoceptor (Homo sapiens, UniProt P35368).
T2 construct: expressed in transfected cells; host or cells: CHO-K1
T2 sequence (P35368 1-520): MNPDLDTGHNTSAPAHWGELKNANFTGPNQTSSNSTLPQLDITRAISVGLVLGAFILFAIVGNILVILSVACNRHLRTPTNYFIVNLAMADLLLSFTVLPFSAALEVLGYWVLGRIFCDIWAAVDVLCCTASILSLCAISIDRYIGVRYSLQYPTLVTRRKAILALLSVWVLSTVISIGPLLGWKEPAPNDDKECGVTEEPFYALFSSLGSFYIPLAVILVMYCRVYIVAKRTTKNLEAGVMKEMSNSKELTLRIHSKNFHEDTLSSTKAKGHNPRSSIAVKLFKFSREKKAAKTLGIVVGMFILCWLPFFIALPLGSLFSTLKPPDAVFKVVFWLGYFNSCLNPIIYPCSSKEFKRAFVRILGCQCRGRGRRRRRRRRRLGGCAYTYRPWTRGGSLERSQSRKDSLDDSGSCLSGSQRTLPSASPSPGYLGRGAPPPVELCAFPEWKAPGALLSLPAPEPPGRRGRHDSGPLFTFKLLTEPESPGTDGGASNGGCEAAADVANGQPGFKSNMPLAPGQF
Nature of the assay: ERK1/2‐phosphorylation (Surefire Alphascreen), CHO‐α1B cells. It is filed as cell-based.

Assay [3] addresses T2, human α1B‐adrenoceptor. Nature of the assay: Intracellular free calcium mobilization, CHO‐α1B cells. It is filed as cell-based. For orientation: Calcium assays in cells follow changes in intracellular calcium, usually with a dye or a luminescent sensor.
Assay [4] deals with parental CHO cell line without any transfected receptors. Put plainly: ERK1/2‐phosphorylation, parent CHO cells without transfected receptors. The assay is classed as cell-based, Chinese hamster.
In assay [5] the target is T3, human α1A‐adrenoceptor (Homo sapiens, UniProt P35348).
T3 construct: expressed in transfected cells; host or cells: CHO-K1
T3 sequence (P35348 1-466): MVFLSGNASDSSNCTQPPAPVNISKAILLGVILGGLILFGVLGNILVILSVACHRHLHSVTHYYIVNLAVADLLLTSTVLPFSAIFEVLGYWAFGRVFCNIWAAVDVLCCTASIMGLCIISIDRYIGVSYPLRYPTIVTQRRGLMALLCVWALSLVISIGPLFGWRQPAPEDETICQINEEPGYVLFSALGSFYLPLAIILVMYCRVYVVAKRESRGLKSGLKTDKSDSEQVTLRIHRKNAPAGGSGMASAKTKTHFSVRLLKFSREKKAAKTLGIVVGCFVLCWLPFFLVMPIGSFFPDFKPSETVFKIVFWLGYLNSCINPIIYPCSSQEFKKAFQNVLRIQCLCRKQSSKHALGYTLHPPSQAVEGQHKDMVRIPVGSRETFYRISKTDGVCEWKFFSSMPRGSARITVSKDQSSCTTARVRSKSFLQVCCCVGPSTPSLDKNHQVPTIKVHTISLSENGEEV
Nature of the assay: ERK1/2‐phosphorylation (Surefire Alphascreen), CHO‐α1A cells. The assay is classed as cell-based.

Assay [6] concerns the target T3, human α1A‐adrenoceptor. Put plainly: ^3H‐cAMP accumulation, CHO‐α1A cells. The assay is classed as cell-based. The conditions noted are these: CHO‐α1A cells; % of 10 µM forskolin response. On the technique in general: Cyclic AMP is a second messenger, typically raised through Gs and lowered through Gi signalling.
In assay [7] the target is T1, human α1D‐adrenoceptor (full length). Nature of the assay: Intracellular free calcium mobilization, CHO‐α1D cells. It is filed as cell-based. The following applies: for Intracellular calcium release % ionomycin: maximal response as % of 10 µM ionomycin.
The test system of assay [8] is parental CHO cell line without any transfected receptors. Nature of the assay: Intracellular calcium mobilization, parent CHO cells without transfected receptors. The following applies: Cricetulus griseus, read-out: Intracellular calcium release % ionomycin. The assay is classed as cell-based, Chinese hamster.
The target of assay [9] is T3, human α1A‐adrenoceptor. Put plainly: Intracellular free calcium mobilization, CHO‐α1A cells. The assay is classed as cell-based.
The subject of assay [10] is parental CHO cell line without any transfected receptors. Put plainly: Forskolin‐stimulated cAMP accumulation, parent CHO cells without transfected receptors. It is filed as cell-based, Chinese hamster. The conditions noted are these: CHO cells without transfected receptors; response at 100μM only, EC50 not obtainable; % of forskolin-stimulated cAMP.
Assay [11] deals with T2, human α1B‐adrenoceptor. Put plainly: ^3H‐cAMP accumulation, CHO‐α1B cells. The following applies: CHO‐α1B cells; % forskolin maximum response. It is filed as cell-based.
In assay [12] the target is T1, human α1D‐adrenoceptor (full length). Nature of the assay: ^3H‐prazosin whole‐cell radioligand binding, CHO‐α1D cells.
Assay [13] concerns the target T3, human α1A‐adrenoceptor. Nature of the assay: ^3H‐prazosin whole‐cell radioligand binding, CHO‐α1A cells.
In assay [14] the target is T2, human α1B‐adrenoceptor. Put plainly: ^3H‐prazosin whole‐cell radioligand binding, CHO‐α1B cells.
[15] abbreviates: CHO‐α1D cells, maximal response as % of PDBu.
The mark [16] stands for this setting: CHO cells without transfected receptors, maximal response as % of PDBu (10μM) response, mean ± s.e.m.
The mark [17] stands for this setting: CHO cells without transfected receptors, response at maximum concentration used (c2), as % of ionomycin (10μM) response, mean ± s.e.m.
The mark [18] stands for this setting: 3H‐prazosin binding Log KD, CHO‐α1D cells, whole‐cell binding (from Table 1), log values given negative.
[19] abbreviates: CHO‐α1D cells, given as log KD (negative), mean ± SEM, 'early plateau' = specific binding not fully inhibited.
Setting [20] is: CHO‐α1D cells, log values given negative.

Regarding `O=C1CC2(CCCC2)CC(=O)N1CCCCN1CCN(c2ncccn2)CC1` [Buspirone], the “ERK1/2‐phosphorylation % PDBu” value in assay [1] (setting [15]) was determined as 11.3 ± 2.5%; on human α1B‐adrenoceptor [2] (CHO‐α1B cells, maximal response as % PDBu response, for bi‐phasic responses the initial stimulatory part), 47.2 ± 8.6%; on human α1A‐adrenoceptor [5] (CHO‐α1A cells, % of 10 µM PDBu, ^a bi‐phasic: initial stimulatory part) it was 47.3 ± 10.6%. The “Intracellular calcium release % ionomycin” value is 47.8 ± 3.2% at human α1B‐adrenoceptor [3] (CHO‐α1B cells, maximal response as % of 10 µM ionomycin response); 9.0 ± 1.5% in assay [7] (CHO‐α1D cells); 46.7 ± 3.0% on human α1A‐adrenoceptor [9] (CHO‐α1A cells, maximal response as % of 10 µM ionomycin). Also, the “ERK1/2-phosphorylation % PDBu” value in assay [4] (setting [16]) was “No response”. Also, on human α1A‐adrenoceptor [6], the “cAMP accumulation % forskolin” value is 3.3 ± 0.06%. The Emax in assay [8] (setting [17]) was 3.1 ± 2.3%. The “cAMP accumulation (in presence of forskolin) % forskolin-stim cAMP at 100μM” value in assay [10] was 113.6 ± 5.2%.

In general, Kd refers to the constant that tells how readily two partners part at equilibrium. Lower therefore signals higher affinity. Consider `Cc1cccc(Cc2c[nH]cn2)c1C` [Detomidine], for which the “ERK1/2‐phosphorylation % PDBu at 100 µM” value in assay [1] stood at 12.3 ± 2.4%. Also, the “ERK1/2‐phosphorylation % PDBu” value at human α1B‐adrenoceptor [2] stood at 31.5 ± 5.4%; at human α1A‐adrenoceptor [5], 84.2 ± 3.8%. Also, the entries for the “cAMP accumulation % forskolin” value at human α1B‐adrenoceptor [11] and on human α1A‐adrenoceptor [6] were 2.8 ± 0.6% and 17.3 ± 1.9%, respectively. For the same compound, the Emax at 100 µM in assay [4] (Cricetulus griseus, CHO, read-out: ERK1/2-phosphorylation % PDBu at 100μM) turned out to be 6.1 ± 4%. Also, the Kd in [12] (setting [18]) and in [12] (setting [19]) was 0.977 µM in each case. Besides, in [8] (setting [17]), the Emax amounted to 4.3 ± 1.7%. In [10], the “cAMP accumulation (in presence of forskolin) % forskolin-stim cAMP at 100μM” value worked out at 83.2 ± 4.9%.

For the compound `OCc1cc(C(O)CNCCCCCCOCCCCc2ccccc2)ccc1O` (stereo not shown) [Salmeterol], in assay [1] (setting [20]), the “ERK1/2‐phosphorylation Log EC50” value is “No response”. In addition, the “ERK1/2‐phosphorylation % PDBu” value in [1] (setting [15]) is recorded as “No response”. The “Intracellular calcium release % ionomycin at 10 µM” value is given as 15.2 ± 4.0% on human α1B‐adrenoceptor [3] (CHO‐α1B cells, response at 10 µM ligand (no EC50 given), % of ionomycin response) and 28.2 ± 2.7% at human α1A‐adrenoceptor [9]. The “ERK1/2-phosphorylation Log EC50” value in assay [4] is “No response”. Further, the “ERK1/2-phosphorylation % PDBu” value in [4] (setting [16]) was “No response”. Further, the “Intracellular calcium release Log EC50” value in assay [7] (setting [20]) was “No response”. For the same compound, the “Intracellular calcium release % ionomycin” value in [7] (CHO‐α1D cells) is listed as “No response”. Moreover, the “Affinity selectivity ratio α1B vs α1D” value in assay [12] is given as 4.4 fold. Further, the Kd in assay [12] (setting [18]) is 1.7 µM; in assay [12] (setting [19]), 1.7 µM; on human α1A‐adrenoceptor [13] it was 0.776 µM; on human α1B‐adrenoceptor [14] (CHO‐α1B cells, given as log KD (negative), mean ± SEM), 7.41 µM; at human α1B‐adrenoceptor [14] (Log KD, ^3H‐prazosin binding, CHO‐α1B cells, whole‐cell binding (from Table 1), given as log KD (negative numbers)), 7.41 µM. Besides, the “Affinity selectivity ratio α1A vs α1B” value at human α1A‐adrenoceptor [13] was 9.5 fold. For the same compound, the Emax in assay [8] (setting [17]) turned out to be 3.2 ± 1.4%.

Usually EC50 stands for the midpoint of the concentration-response curve. Regarding `Cc1cccc(C)c1N=C1NCCCS1` [Xylazine], in [1], the “ERK1/2‐phosphorylation % PDBu” value is given as “No response” and the “ERK1/2‐phosphorylation Log EC50” value is “No response”. Further, on human α1B‐adrenoceptor [2], the EC50 was 6.76 µM and the “ERK1/2‐phosphorylation % PDBu” value was 26.4 ± 5.8%. On human α1B‐adrenoceptor [3], the EC50 is 4.68 µM, the “Intracellular calcium release % ionomycin” value is recorded as 30.4 ± 3.9% and the “Log efficacy ratio KD /EC50” value worked out at 2.11. Further, in assay [4], the “ERK1/2-phosphorylation % PDBu” value is recorded as “No response” and the “ERK1/2-phosphorylation Log EC50” value was “No response”. At human α1A‐adrenoceptor [5], the EC50 was 2.04 µM and the “ERK1/2‐phosphorylation % PDBu” value stood at 78.6 ± 5.8%. The “Intracellular calcium release % Ionomycin at 100 µM” value in [7] worked out at 3.8 ± 0.8%. In assay [12], the “Affinity selectivity ratio α1A vs α1D” value was determined as 1.2 fold, the “Affinity selectivity ratio α1B vs α1D” value is 21.9 fold and the Kd is 27.5 µM. Also, on human α1A‐adrenoceptor [13], the “Affinity selectivity ratio α1A vs α1B” value stood at 18.2 fold and the Kd is 33.1 µM. Further, the Emax in assay [8] (CHO) was 2.3 ± 0.3%. The compound also gave a dissociation constant (Kd) on human α1B‐adrenoceptor [14] of 603 µM. For the same compound, at human α1A‐adrenoceptor [9], the EC50 is 1.2 µM, the “Intracellular calcium release % ionomycin” value stood at 45.1 ± 2.2% and the “Log efficacy ratio KD /EC50” value was found to be 1.44.
